Reference: publication PMC6934700, “Structure-Guided Design of a Fluorescent Probe for the Visualization of FtsZ in Clinically Important Gram-Positive and Gram-Negative Bacterial Pathogens” (Scientific Reports, 2019)
Values after ≈ are worked out from the molar mass of the structure shown. Read-outs that look alike come from different tables or passages of the source.

Legend:
[1] = system: FtsZ in E. faecium ATCC 19434 cells; test: FtsZ visualization by fluorescence microscopy in live cells; format: cell-based, Enterococcus faecium; settings: 1 µg/mL for 5 minutes
Protocol: (§1) All differential interference contrast (DIC) and fluorescence microscopy experiments were conducted using an Olympus BX50 microscope equipped with an X-cite Exacte 200 W mercury lamp, a 100× Olympus UPLSAPO oil immersion objective (1.40 aperture), as well as both Chroma ET-EGFP (FITC/Cy2) and ET mCherry, Texas Red filters. Images were captured using a QImaging Retiga R3 charge-coupled device (CCD) camera and the Ocular-Version 2.0 software package (QImaging).
(§2) For visualizing FtsZ in Gram-positive bacteria using BOFP, the bacterial cells were grown to log-phase in media suitable for each individual pathogen. Specifically, S. aureus NRS705 (MRSA) was grown in tryptic soy broth (TSB), E. faecalis ATCC 29212 and E. faecium ATCC 19434 were grown in lactobacilli MRS broth, S. agalactiae ATCC 12386 and S. pneumoniae ATCC 49619 were grown in TH broth, and S. pyogenes ATCC 19615 was grown in CAMH broth supplemented with 3% (v/v) LHB. For each Gram-positive bacterial strain, a total of 1 mL of cell culture was centrifuged at 15,000 × g for 1 minute and washed 2–3 times with 1 mL of PBS. After the final wash, the pelleted cells were resuspended in 500 µL of PBS containing 1 µg/mL of BOFP and incubated in the dark for 5 minutes at room temperature. The cells were then centrifuged at 15,000 × g for 1 minute, washed twice with 1 mL of PBS, and subsequently resuspended in 200 µL of PBS. […]

[2] = system: S. aureus NRS705 (MRSA); test: MIC assay by broth microdilution; format: cell-based, Staphylococcus aureus; settings: Staphylococcus aureus; MRSA NRS705; TH broth; ≥90% growth inhibition after 18-24 hours
Protocol: MIC assays of 1, 3, and BOFP were conducted by standard broth microdilution in TH media. Briefly, log-phase S. aureus NRS705 (MRSA) cells were added to 96-well microtiter plates (at 5 × 10^5 CFU/mL) containing 2-fold serial dilutions of each test compound in 0.1 mL of TH broth, with each compound concentration being present in duplicate. The MIC is defined as the lowest compound concentration at which growth is ≥90% inhibited after 18-24 hours of aerobic growth.

[3] = system: FtsZ in S. pyogenes ATCC 19615 cells; test: FtsZ visualization by fluorescence microscopy in live cells; format: cell-based, Streptococcus pyogenes; settings: 1 µg/mL for 5 minutes
Protocol: as §1, §2

[4] = biological target: K. pneumoniae (KpFtsZ) (Klebsiella pneumoniae, UniProt A0A0H3GRR0); test: Fluorescence anisotropy binding of BOFP to KpFtsZ; settings: for Kd: 50 mM Tris-HCl (pH 7.6), 50 mM KCl, 0.1 µM BOFP
Protocol: (§3) Fluorescence anisotropy experiments were performed using an AVIV model ATF105 spectrofluorometer at 15, 25, or 37 °C. In these experiments, bandwidths were set to 4 nm in both the excitation and emission directions, with the excitation and emission wavelengths being set at 488 nm and 510 nm, respectively. BOFP (0.1 µM) was titrated with increasing concentrations (ranging from 0 to 12 µM) of FtsZ in 120 µL of buffer containing 50 mM Tris-HCl (pH 7.6) and 50 mM KCl. After each protein addition, the samples were equilibrated for 3 minutes, whereupon the fluorescence anisotropy was measured.
(§4) In this equation, r0 is the anisotropy of the protein-free compound, r∞ is the anisotropy of the compound in the presence of an infinite concentration of FtsZ, [C]tot is the total concentration of the compound, and [P]tot is the total concentration of protein with each addition. These analyses yielded the equilibrium dissociation constant (Kd) for each binding reaction.
(§5) The binding free energy (ΔG) at temperature T was derived from the corresponding Kd value determined at T using the following relationship:2 ΔG=−RTln(1/Kd)
(§6) The binding enthalpy (ΔH) and entropy (ΔS) were derived from linear fits of the ln(1/Kd) vs. 1/T plots shown in Figs. 3f and 5e using the following relationship:3 ln(1/Kd)=−ΔH/R(1/T)+ΔS/R
(§7) In comparative control experiments, the anisotropy of 0.1 µM BODIPY FL-COOH or BOFP alone or in the presence of SaFtsZ (10 µM), SpyFtsZ (10 µM), KpFtsZ (2 µM), or PaFtsZ (2 µM) was measured at 37 °C in the same buffer described above.

[5] = biological target: T1, P. aeruginosa (PaFtsZ) (Pseudomonas aeruginosa, UniProt P47204); test: Fluorescence anisotropy binding of BOFP to PaFtsZ; settings: for Kd: 50 mM Tris-HCl (pH 7.6), 50 mM KCl, 0.1 µM BOFP
T1 construct: 6xHis (C); made in house; host or cells: E. coli BLR (DE3), pET-22b(+)
T1 sequence (P47204 1-394): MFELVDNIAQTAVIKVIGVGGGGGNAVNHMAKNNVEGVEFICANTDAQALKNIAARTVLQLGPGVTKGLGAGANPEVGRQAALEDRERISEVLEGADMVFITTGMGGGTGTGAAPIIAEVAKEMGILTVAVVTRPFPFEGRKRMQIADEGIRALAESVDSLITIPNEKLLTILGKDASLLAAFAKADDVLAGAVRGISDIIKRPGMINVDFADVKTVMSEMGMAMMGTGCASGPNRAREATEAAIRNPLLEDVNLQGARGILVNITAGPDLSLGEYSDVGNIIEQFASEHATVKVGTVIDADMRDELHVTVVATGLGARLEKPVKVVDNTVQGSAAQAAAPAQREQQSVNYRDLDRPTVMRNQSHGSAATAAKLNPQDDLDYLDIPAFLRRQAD
Protocol: as §3, §4, §5, §6, §7

[6] = biological target: E. coli (EcFtsZ) (Escherichia coli, UniProt P0A9A6); test: Fluorescence anisotropy binding of BOFP to EcFtsZ; settings: for Kd: 50 mM Tris-HCl (pH 7.6), 50 mM KCl, 0.1 µM BOFP
Protocol: as §3, §4, §5, §6

[7] = calculated at T = 310 K (37 °C) from Kd
[8] = from linear fit of ln(1/Kd) vs. 1/T

E. coli (EcFtsZ), sequence (P0A9A6 whole entry): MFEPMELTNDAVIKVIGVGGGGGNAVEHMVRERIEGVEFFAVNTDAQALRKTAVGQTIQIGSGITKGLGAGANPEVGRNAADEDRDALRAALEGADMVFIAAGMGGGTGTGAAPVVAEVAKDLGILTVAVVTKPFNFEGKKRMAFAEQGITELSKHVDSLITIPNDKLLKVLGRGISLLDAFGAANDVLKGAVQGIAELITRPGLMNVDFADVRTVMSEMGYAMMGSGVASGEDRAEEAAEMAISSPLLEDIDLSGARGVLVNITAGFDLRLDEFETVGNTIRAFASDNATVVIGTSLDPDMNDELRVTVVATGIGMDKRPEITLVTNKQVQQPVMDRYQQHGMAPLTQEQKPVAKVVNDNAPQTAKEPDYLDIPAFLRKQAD
K. pneumoniae (KpFtsZ), sequence (A0A0H3GRR0 entry or part of it): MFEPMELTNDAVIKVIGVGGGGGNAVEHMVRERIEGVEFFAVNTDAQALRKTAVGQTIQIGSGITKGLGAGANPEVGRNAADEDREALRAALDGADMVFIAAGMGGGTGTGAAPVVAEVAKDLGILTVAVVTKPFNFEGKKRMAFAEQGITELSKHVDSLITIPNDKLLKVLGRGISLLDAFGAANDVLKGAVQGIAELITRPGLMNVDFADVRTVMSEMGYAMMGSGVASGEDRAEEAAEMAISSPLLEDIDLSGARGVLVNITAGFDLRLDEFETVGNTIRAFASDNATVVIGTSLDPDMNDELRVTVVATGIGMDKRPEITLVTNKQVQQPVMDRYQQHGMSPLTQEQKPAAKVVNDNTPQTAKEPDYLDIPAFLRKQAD

## CC1=CC(C)=[N+]2C1=Cc1ccc(CCC(=O)OCC(Oc3ccc(F)c(C(N)=O)c3F)c3nc(-c4ccc(C(F)(F)F)cc4)c(Br)o3)n1[B-]2(F)F (stereo not drawn) [BOFP]
[1]
  Fluorescence staining / FtsZ labeling in live cells: bright bands of fluorescence staining are clearly visible at midcell
[2]
  MIC: 1 µg/mL (≈ 1.28 µM)
[3]
  Fluorescence staining / FtsZ labeling in live cells: bright bands of fluorescence staining are clearly visible at midcell
[4]; 15 °C, read-out: Kd - 15 °C
  Kd: 420 ± 50 nM
[4]; 25 °C, read-out: Kd - 25 °C
  Kd: 580 ± 40 nM
[4]; 37 °C, read-out: Kd - 37 °C
  Kd: 820 ± 40 nM
[4]; [7]
  ΔG: -8.6 ± 0.1 kcal/mol
[4]; [8]
  ΔH: -5.4 ± 0.1 kcal/mol
[5]; 15 °C, read-out: Kd - 15 °C
  Kd: 230 ± 20 nM
[5]; 25 °C, read-out: Kd - 25 °C
  Kd: 360 ± 60 nM
[5]; 37 °C, read-out: Kd - 37 °C
  Kd: 580 ± 60 nM
[5]; [7]
  ΔG: -8.8 ± 0.1 kcal/mol
[5]; [8]
  ΔH: -7.7 ± 0.2 kcal/mol
[6]; 15 °C, read-out: Kd - 15 °C
  Kd: 220 ± 30 nM
[6]; 25 °C, read-out: Kd - 25 °C
  Kd: 280 ± 20 nM
[6]; 37 °C, read-out: Kd - 37 °C
  Kd: 440 ± 40 nM
[6]; [7]
  ΔG: -9.0 ± 0.1 kcal/mol
[6]; [8]
  ΔH: -5.6 ± 0.8 kcal/mol
